Experimental data published in patent US20240293351A1, “METHODS OF ADMINISTERING SYNTHETIC TRITERPENOIDS” (REATA PHARMACEUTICALS HOLDINGS, LLC, priority 2020, published 2024).
Values joined by “and” are separate entries in the source; they are usually repeats but may differ in a detail not shown here. Identical values can stand only once. Like-named read-outs stand apart in the source and are kept apart here.

Tests used:
[1] = BEACON 24-hour ABPM / 24-hr urine collection sub-study; type: in vivo, human
Description: A subset of the BEACON patients consented to additional 24-hour assessments including ambulatory blood pressure monitoring (ABPM) and 24-hour urine collections. An independent Events Adjudication Committee (EAC), blinded to study treatment assignment, evaluated whether renal events, cardiovascular events, and neurological events met the pre-specified definitions of the primary and secondary endpoints. An IDMC, consisting of external clinical experts supported by an independent statistical group, reviewed unblinded safety data throughout the study and made recommendations as appropriate.
A subset of patients consented to additional 24-hr assessments (sub-study) of ambulatory blood pressure monitoring (ABPM) and 24-hr urine collection at selected visits. […] Also of note, reductions in serum magnesium were not associated with renal loss of magnesium.

[2] = BEACON post-hoc review of EAC case packets for heart failure events within first four weeks; type: in vivo, human
Experimental: The first scheduled post-baseline assessment in BEACON was at Week 4. Since many of the heart failure events occurred prior to Week 4, the clinical database provides limited information to characterize these patients. Post-hoc review of the EAC case packets for heart failure cases that occurred prior to Week 4 was performed to assess clinical, vitals, laboratory, and imaging data collected at the time of the first heart failure event (Tables 13 and 14).
Baseline central laboratory values from the clinical database were compared to local laboratory values obtained on admission for heart failure that were included in the EAC packets.

[3] = BEAM (402-C-0804) phase 2b study, crystalline formulation; type: in vivo, human
[4] = Thorough QT Study in healthy volunteers; type: in vivo, human; conditions: 6 days
Experimental: Intensive blood pressure monitoring was employed in a separate Thorough QT Study, which was conducted in healthy volunteers.

[5] = human, in vivo, po
[6] = Crystalline 25 mg QD 52 weeks, N = 57
[7] = Crystalline 75 mg QD 52 weeks, N = 57
[8] = Crystalline 150 mg QD 52 weeks, N = 56
[9] = ITT N = 1088, adjudicated primary endpoints
[10] = post-hoc ITT, Observed N, randomized 1088
[11] = post-hoc, Age ≤ 75, randomized 786
[12] = post-hoc, BL ACR ≤ 300, eGFR > 20, BNP ≤ 200, randomized 209
[13] = post-hoc, BL ACR ≤ 1000, eGFR > 20, Age ≤ 75, randomized 368
[14] = post-hoc, BL ACR ≤ 1000, randomized 798
[15] = post-hoc, BL BNP ≤ 200, randomized 559
[16] = post-hoc, BL eGFR > 20, randomized 735
[17] = post-hoc, No h/o HF, randomized 922

Compound: COC(=O)[C@]12CCC(C)(C)C[C@H]1[C@H]1C(=O)C=C3[C@@]4(C)C=C(C#N)C(=O)C(C)(C)[C@@H]4CC[C@@]3(C)[C@]1(C)CC2 [Bardoxolone methyl, methyl-2-cyano-3,12-dioxooleana-1,9-dien-28-oic acid]
- Urinary Magnesium, WK4 Δ from baseline, mean ([1]; n = 40): −0.9 mmol/24 h
- Urinary Magnesium, WK4, mean ([1]; n = 43): 6.0 mmol/24 h
- Urinary Potassium, WK4 Δ from baseline, mean ([1]; n = 57): −7 mmol/24 h
- Urinary Sodium, WK4 Δ from baseline, mean ([1]; n = 57): −27 mmol/24 h
- Urinary Potassium, WK4, mean ([1]; n = 61): 52 mmol/24 h
- Urinary Sodium, WK4, mean ([1]; n = 61): 140 mmol/24 h
- 24-hour Urine Volume, WK4 Δ from baseline, mean ([1]; n = 63): -247 mL
- 24-hour Urine Volume, WK4, mean ([1]; n = 64): 1792 mL
- Serum Magnesium, WK4, mean ([1]; n = 77): 1.53 mEq/L
- Serum Magnesium, WK4 Δ from baseline, mean ([1]; n = 77): −0.21 mEq/L
- Serum Potassium, WK4 Δ from baseline, mean ([1]; n = 77): 0.10 mmol/L
- Serum Sodium, WK4, mean ([1]; n = 77): 140.3 mmol/L
- Serum Sodium, WK4 Δ from baseline, mean ([1]; n = 77): 0.2 mmol/L
- Serum Potassium, WK4, mean ([1]; n = 77, 20 mg once daily): 4.8 mmol/L
- LVEF at HF hospitalization, mean ([2]; n = 23): 52% ±
- Serum Sodium at HF hospitalization, mean ([2]; n = 30): 139.0 mmol/L
- Serum Sodium Δ (HF vs baseline), mean ([2]; n = 30): -1.0 mmol/L
- Heart Rate at HF hospitalization, mean ([2]; n = 32): 81 bpm
- Heart Rate Δ (HF vs baseline), mean ([2]; n = 32): 14.5 bpm
- SBP at HF hospitalization, mean ([2]; n = 33): 154 mmHg
- SBP Δ (HF vs baseline), mean ([2]; n = 33): 10.5 mmHg
- DBP at HF hospitalization, mean ([2]; n = 34): 75 mmHg
- DBP Δ (HF vs baseline), mean ([2]; n = 34): 7.9 mmHg
- Serum Potassium at HF hospitalization, mean ([2]; n = 34): 4.8 mmol/L
- Serum Potassium Δ (HF vs baseline), mean ([2]; n = 34): 0.1 mmol/L
- Serum Creatinine at HF hospitalization, mean ([2]; n = 38): 2.7 mg/dL
- Serum Creatinine Δ (HF vs baseline), mean ([2]; n = 38): -0.1 mg/dL
- AE, SOC Card: Cardiac failure congestive, patients n (%) [3, 6]: 2 (4)
- AE, SOC Card: Dyspnoea paroxysmal nocturnal, patients n (%) [3, 6]: 0
- AE, SOC Card: Oedema peripheral, patients n (%) [3, 6]: 4 (7)
- AE, SOC Genrl: Generalised oedema, patients n (%) [3, 6]: 2 (4)
- AE, SOC Genrl: Oedema peripheral, patients n (%) [3, 6]: 11 (19)
- AE, SOC Inv: Ejection fraction decreased, patients n (%) [3, 6]: 1 (2)
- AE, SOC Metab: Fluid overload, patients n (%) [3, 6]: 3 (5)
- AE, SOC Metab: Oedema peripheral, patients n (%) [3, 6]: 3 (5)
- AE, SOC Resp: Dyspnoea exertional, patients n (%) [3, 6]: 1 (2)
- AE, SOC Resp: Dyspnoea, patients n (%) [3, 6]: 2 (4)
- AE, SOC Resp: Orthopnoea, patients n (%) [3, 6]: 0
- AE, SOC Resp: Pulmonary oedema, patients n (%) [3, 6]: 0
- SAE, SOC Card: Cardiac failure congestive, patients n (%) [3, 6]: 2 (4)
- SAE, SOC Genrl: Oedema peripheral, patients n (%) [3, 6]: 0
- SAE, SOC Metab: Fluid overload, patients n (%) [3, 6]: 1 (2)
- SAE, SOC Resp: Dyspnoea, patients n (%) [3, 6]: 0
- SAE, SOC Resp: Pulmonary oedema, patients n (%) [3, 6]: 0
- AE, SOC Card: Cardiac failure congestive, patients n (%) [3, 7]: 3 (5)
- AE, SOC Card: Dyspnoea paroxysmal nocturnal, patients n (%) [3, 7]: 1 (2)
- AE, SOC Card: Oedema peripheral, patients n (%) [3, 7]: 3 (5)
- AE, SOC Genrl: Generalised oedema, patients n (%) [3, 7]: 0
- AE, SOC Genrl: Oedema peripheral, patients n (%) [3, 7]: 10 (18)
- AE, SOC Inv: Ejection fraction decreased, patients n (%) [3, 7]: 0
- AE, SOC Metab: Fluid overload, patients n (%) [3, 7]: 2 (4)
- AE, SOC Metab: Oedema peripheral, patients n (%) [3, 7]: 1 (2)
- AE, SOC Resp: Dyspnoea exertional, patients n (%) [3, 7]: 0
- AE, SOC Resp: Dyspnoea, patients n (%) [3, 7]: 6 (11)
- AE, SOC Resp: Orthopnoea, patients n (%) [3, 7]: 0
- AE, SOC Resp: Pulmonary oedema, patients n (%) [3, 7]: 1 (2)
- SAE, SOC Card: Cardiac failure congestive, patients n (%) [3, 7]: 2 (4)
- SAE, SOC Genrl: Oedema peripheral, patients n (%) [3, 7]: 0
- SAE, SOC Metab: Fluid overload, patients n (%) [3, 7]: 1 (2)
- SAE, SOC Resp: Dyspnoea, patients n (%) [3, 7]: 0
- SAE, SOC Resp: Pulmonary oedema, patients n (%) [3, 7]: 1 (2)
- AE, SOC Card: Cardiac failure congestive, patients n (%) [3, 8]: 3 (5)
- AE, SOC Card: Dyspnoea paroxysmal nocturnal, patients n (%) [3, 8]: 0
- AE, SOC Card: Oedema peripheral, patients n (%) [3, 8]: 4 (7)
- AE, SOC Genrl: Generalised oedema, patients n (%) [3, 8]: 0
- AE, SOC Genrl: Oedema peripheral, patients n (%) [3, 8]: 11 (20)
- AE, SOC Inv: Ejection fraction decreased, patients n (%) [3, 8]: 0
- AE, SOC Metab: Fluid overload, patients n (%) [3, 8]: 0
- AE, SOC Metab: Oedema peripheral, patients n (%) [3, 8]: 3 (5)
- AE, SOC Resp: Dyspnoea exertional, patients n (%) [3, 8]: 3 (5)
- AE, SOC Resp: Dyspnoea, patients n (%) [3, 8]: 4 (7)
- AE, SOC Resp: Orthopnoea, patients n (%) [3, 8]: 0
- AE, SOC Resp: Pulmonary oedema, patients n (%) [3, 8]: 0
- SAE, SOC Card: Cardiac failure congestive, patients n (%) [3, 8]: 2 (4)
- SAE, SOC Genrl: Oedema peripheral, patients n (%) [3, 8]: 1 (2)
- SAE, SOC Metab: Fluid overload, patients n (%) [3, 8]: 0
- SAE, SOC Resp: Dyspnoea, patients n (%) [3, 8]: 0
- SAE, SOC Resp: Pulmonary oedema, patients n (%) [3, 8]: 0
- Blood pressure ([3]; crystalline formulation, titration design): no clear dose-related trend was observed in blood pressure
- Change in blood pressure ([4]; 20 mg or 80 mg once daily): did not differ from changes observed in placebo-treated patients
- QTcF, placebo-corrected changes (ΔΔQTcF) ([4]; 20 or 80 mg): did not increase QTcF
- Occurrence of Death (BEACON, ITT, BARD 20 mg (N = 1088), deaths at database lock): 4.0%
- Occurrence of ESRD (BEACON, ITT, BARD 20 mg (N = 1088), events through last date of contact): 4.0%
- Patient's first event: CV death, patients [9]: 26 n
- Patient's first event: Chronic dialysis, patients [9]: 40 n
- Patient's first event: End stage renal disease (ESRD), patients [9]: 43 n
- Patient's first event: Renal death, patients [9]: 2 n
- Patient's first event: Renal transplant, patients [9]: 1 n
- Composite primary efficacy outcome (ESRD or CV death), patients (ITT N = 1088, adjudicated, on or before study termination): 69 n
- SAE Infections and infestations, patients (ITT, All Patients N = 1088): 79
- SAE Infections and infestations, patients (ITT, BL ACR ≤ 300, eGFR > 20, BNP ≤ 200, N = 209): 9
- SAE Infections and infestations, patients (ITT, BL ACR ≤ 1000, eGFR > 20, Age ≤ 75, N = 368): 20
- Treatment-emergent SAE: Infections and infestations, patients (Safety Population N = 1092, 20 mg once daily): 79 n
- Fatal heart failure events (final analysis): three
- Hy's Law cases (human, in vivo): no Hy's Law cases were observed
- Increase in BNP from baseline, Mean±SD (human, in vivo): 225 ± 598 pg/mL
- K^+ Retention (human, in vivo): None
- Mean WK 24 ΔeGFR (human, in vivo): 6.1 and 5.5 and 7.6
- Mean increase in diastolic blood pressure (human, in vivo): 1.4 mmHg
- Mean increase in systolic blood pressure (human, in vivo): 1.9 mmHg
- N of patients with WK 24 BNP change 25% to 100% Increase (human, in vivo): 45
- N of patients with WK 24 BNP change <25% Increase (human, in vivo): 84
- N of patients with WK 24 BNP change ≥100% Increase (human, in vivo): 82
- QTc prolongation (human, in vivo): not associated with QTc prolongation
- SAE Endocrine disorders, patients (human, in vivo): 1
- QTcF interval, change from baseline, 25th quartile (human, in vivo, 24 weeks): -13 ms
- QTcF interval, change from baseline, 75th quartile (human, in vivo, 24 weeks): 10 ms
- QTcF interval, change from baseline, Mean (SD) (human, in vivo, 24 weeks): −0.9 (19.2) msec
- QTcF interval, change from baseline, Range (min, max) (human, in vivo, 24 weeks): −88, 69
- QTcF interval, change from baseline, median (human, in vivo, 24 weeks): -1 ms
- QTcF interval, observed, 25th quartile (human, in vivo, 24 weeks): 407 ms
- QTcF interval, observed, 75th quartile (human, in vivo, 24 weeks): 443 ms
- QTcF interval, observed, Mean (SD) (human, in vivo, 24 weeks): 425.8 (26.5) msec
- QTcF interval, observed, median (human, in vivo, 24 weeks): 425 ms
- All-Cause Death, patients [10]: 44
- ESRD, patients with event [10]: 47
- All-Cause Death, patients [11]: 20
- ESRD, patients with event [11]: 38
- All-Cause Death, patients [12]: 5
- ESRD, patients with event [12]: 1
- All-Cause Death, patients [13]: 11
- ESRD, patients with event [13]: 9
- All-Cause Death, patients [14]: 32
- ESRD, patients with event [14]: 21
- All-Cause Death, patients [15]: 14
- ESRD, patients with event [15]: 12
- All-Cause Death, patients [16]: 27
- ESRD, patients with event [16]: 18
- All-Cause Death, patients [17]: 35
- ESRD, patients with event [17]: 35
- Deaths confirmed as cardiovascular, patients (prior to clinical database lock (Mar. 4, 2013)): 29
- Dose dependence of systemic exposure [5]: increased linearly with increasing dose from 20 to 60 mg
- Food effect on total systemic exposure [5]: no appreciable food effect
- Increase in peak plasma levels (Cmax) with food [5]: approximately 71%
- Time of peak plasma concentrations after dose administration [5]: 1 to 6 h
